Legend:
p21 promoter = test: p21/Waf1 p53-responsive promoter CAT reporter assay in transfected LNCaP cells; type: cell-based, human; conditions: LNCaP cells co-transfected with p21-CAT reporter and wild type p53 plasmid; TSA 100 nM
Description: (§1) FIG. 2: Opposite regulatory effect of p53 on PSA and p21 promoters. Chloramphenicol acetyltransferase (CAT)-reporter constructs were used to estimate p53 influence on PSA and p21 promoter elements. […]
(§2) FIG. 3: Trichostatin A (TSA) treatment eliminates the effect p53 has on PSA promoter activity. […] TSA (100 nM) was added 5 h and CAT activity was measured 40 h post-transfection. […]
(§3) Since it has previously been shown that negative regulation of transcription by p53 may involve p53-mediated recruitment of histone deacetylases (HDAC) (Murphy et al., Genes Dev., i3:2490-2501 1999), the inventors set out to determine whether this would be also true for the PSA promoter. […] At the same time, TSA had no effect on p53-mediated transactivation as determined in a similar experiment employing the p21 promoter-driven CAT reporter construct (FIG. 3). […]

PSA promoter = test: PSA promoter/enhancer CAT reporter assay in transfected LNCaP cells; type: cell-based, human; conditions: LNCaP cells co-transfected with PSA-CAT reporter and wild type p53 plasmid; TSA 100 nM
Description: as §1, §2, §3

CC(/C=C/C(=O)NO)=C\[C@@H](C)C(=O)c1ccc(N(C)C)cc1 [TSA, Trichostatin A]
p53-mediated transactivation of p21 promoter-driven CAT reporter (p21 promoter): no effect
p53-mediated repression of PSA promoter driven transcriptional activity (CAT activity) (PSA promoter): completely abrogated

— US20040241653A1, “Methods for identifying marker genes for cancer” (priority 2001, published 2004)
